Measured values taken from the supplement of paper PMC10307832.

Legend:
Test in all cases: relative viability (nuclei count vs DMSO), 5 days (fraction); higher = more cells survive
Omipalisib + Trametinib = compound: COc1ncc(-c2ccc3nccc(-c4ccnnc4)c3c2)cc1NS(=O)(=O)c1ccc(F)cc1F [Omipalisib] + CC(=O)Nc1cccc(-n2c(=O)n(C3CC3)c(=O)c3c(Nc4ccc(I)cc4F)n(C)c(=O)c(C)c32)c1 [Trametinib] (partner 0.02 µM)
Procedure, shortened: (§1)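 After 5 days of treatment, lung cancer cells in 1536-well plates were fixed and stained in a single step (final 0.05% Triton X-100, 1% formaldehyde, 1 ug/ml Hoechst) and their nuclei counted on 4× images. Treatment had been applied by pin tool the day after seeding as one drug alone or as a fixed anchor-drug dose with five library-drug doses (not always all listed) in √10 steps. Relative viability is the nuclei count of treated wells divided by that of vehicle wells, and values are medians of duplicate plates.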

Omipalisib + Olaparib = compound: COc1ncc(-c2ccc3nccc(-c4ccnnc4)c3c2)cc1NS(=O)(=O)c1ccc(F)cc1F [Omipalisib] + O=C(c1cc(Cc2n[nH]c(=O)c3ccccc23)ccc1F)N1CCN(C(=O)C2CC2)CC1 [Olaparib] (partner 8 µM)
Procedure, shortened: as §1

Omipalisib + Alpelisib = compound: COc1ncc(-c2ccc3nccc(-c4ccnnc4)c3c2)cc1NS(=O)(=O)c1ccc(F)cc1F [Omipalisib] + Cc1nc(NC(=O)N2CCC[C@H]2C(N)=O)sc1-c1ccnc(C(C)(C)C(F)(F)F)c1 [Alpelisib] (partner 2 µM)
Procedure, shortened: as §1

Omipalisib + Linsitinib = compound: COc1ncc(-c2ccc3nccc(-c4ccnnc4)c3c2)cc1NS(=O)(=O)c1ccc(F)cc1F [Omipalisib] + C[C@]1(O)C[C@@H](c2nc(-c3ccc4ccc(-c5ccccc5)nc4c3)c3c(N)nccn32)C1 [Linsitinib] (partner 1 µM)
Procedure, shortened: as §1

Omipalisib + Tozasertib = compound: COc1ncc(-c2ccc3nccc(-c4ccnnc4)c3c2)cc1NS(=O)(=O)c1ccc(F)cc1F [Omipalisib] + Cc1cc(Nc2cc(N3CCN(C)CC3)nc(Sc3ccc(NC(=O)C4CC4)cc3)n2)n[nH]1 [Tozasertib] (partner 0.1 µM)
Procedure, shortened: as §1

Omipalisib + Phenformin = compound: COc1ncc(-c2ccc3nccc(-c4ccnnc4)c3c2)cc1NS(=O)(=O)c1ccc(F)cc1F [Omipalisib] + N=C(N)NC(=N)NCCc1ccccc1 [Phenformin] (partner 250 µM)
Procedure, shortened: as §1

Cell Line | relative viability (Omipalisib + Trametinib; first compound 0.0003 µM) | relative viability (Omipalisib + Trametinib; first compound 0.003 µM) | relative viability (Omipalisib + Trametinib; first compound 0.03 µM) | relative viability (Omipalisib + Olaparib; first compound 0.0003 µM) | relative viability (Omipalisib + Olaparib; first compound 0.003 µM) | relative viability (Omipalisib + Olaparib; first compound 0.03 µM) | relative viability (Omipalisib + Alpelisib; first compound 0.0003 µM) | relative viability (Omipalisib + Alpelisib; first compound 0.003 µM) | relative viability (Omipalisib + Alpelisib; first compound 0.03 µM) | relative viability (Omipalisib + Linsitinib; first compound 0.0003 µM) | relative viability (Omipalisib + Linsitinib; first compound 0.003 µM) | relative viability (Omipalisib + Linsitinib; first compound 0.03 µM) | relative viability (Omipalisib + Tozasertib; first compound 0.0003 µM) | relative viability (Omipalisib + Tozasertib; first compound 0.003 µM) | relative viability (Omipalisib + Tozasertib; first compound 0.03 µM) | relative viability (Omipalisib + Phenformin; first compound 0.0003 µM) | relative viability (Omipalisib + Phenformin; first compound 0.003 µM) | relative viability (Omipalisib + Phenformin; first compound 0.03 µM)
NCI-H1915 | 0.273 | 0.192 | 0.201 | 0.288 | 0.267 | 0.244 | 0.994 | 1.07 | 1.03 | 1.08 | 1.12 | 1.01 | 0.44 | 0.395 | 0.421 | 0.368 | 0.389 | 0.366
NCI-H3122 | 0.185 | 0.137 | 0.119 | 0.696 | 0.585 | 0.356 | 0.742 | 0.63 | 0.489 | 1.11 | 0.699 | 0.392 | 0.348 | 0.26 | 0.172 | 0.371 | 0.459 | 0.314
NCI-H661 | 0.605 | 0.454 | 0.409 | 0.744 | 0.659 | 0.604 | 0.804 | 0.612 | 0.478 | 0.389 | 0.439 | 0.234 | 0.366 | 0.388 | 0.37 | 0.264 | 0.264 | 0.224
CAL-12T | 0.299 | 0.205 | 0.173 | 0.76 | 0.691 | 0.349 | 0.989 | 0.95 | 0.774 | 0.75 | 0.822 | 0.513 | 0.306 | 0.28 | 0.151 | 0.543 | 0.573 | 0.361
NCI-H647 | 0.341 | 0.278 | 0.15 | 0.582 | 0.426 | 0.233 | 1.09 | 0.98 | 0.33 | 1.11 | 0.95 | 0.373 | 0.33 | 0.158 | 0.0783 | 0.402 | 0.267 | 0.185
HOP-62 | 0.372 | 0.248 | 0.198 | 0.264 | 0.548 | 0.486 | 0.911 | 0.926 | 0.666 | 1.11 | 0.779 | 0.559 | 0.399 | 0.356 | 0.3 | 0.659 | 0.718 | 0.639
NCI-H2228 | 0.505 | 0.187 | 0.173 | 0.698 | 0.441 | 0.179 | 0.764 | 0.657 | 0.251 | 0.724 | 0.282 | 0.211 | 0.343 | 0.171 | 0.126 | 0.258 | 0.142 | 0.122
NCI-H441 | 0.474 | 0.232 | 0.184 | 0.55 | 0.321 | 0.37 | 0.585 | 0.588 | 0.441 | 0.569 | 0.382 | 0.394 | 0.683 | 0.451 | 0.238 | 0.703 | 0.659 | 0.318
COR-L23 | 0.496 | 0.342 | 0.249 | 0.34 | 0.301 | 0.265 | 0.879 | 0.801 | 0.431 | 0.813 | 0.771 | 0.38 | 0.209 | 0.21 | 0.159 | 0.461 | 0.508 | 0.406
